# Reference: ChEMBL document CHEMBL4000239, “A novel piperazine linked β-amino alcohols bearing a benzosuberone scaffolds as anti-proliferative agents” (2017)
# Columns and labels:
# Type in all cases: functional
# HeLa = assay: Cytotoxicity against human HeLa cells assessed as growth inhibition after 48 hrs by SRB assay
# MDA-MB-231 = assay: Cytotoxicity against human MDA-MB-231 cells assessed as growth inhibition after 48 hrs by SRB assay; conditions: MDA-MB-231, 48 h
# A549 = assay: Cytotoxicity against human A549 cells assessed as growth inhibition after 48 hrs by SRB assay; conditions: A549, 48 h
# [1] = Cytotoxicity against human MiaPaCa cells assessed as growth inhibition after 48 hrs by SRB assay; conditions: MIA PaCa-2, 48 h
smiles,measurement,setting,value
Cc1cc2c(cc1C)C(Cl)=C(COCC(O)CN1CCCCC1)CCC2 (stereo not drawn),GI50,HeLa,1.7 µM
same,GI50,MDA-MB-231,2100 nM
same,GI50,A549,1500 nM
same,GI50,[1],2600 nM
Cc1cc2c(cc1C)C(Cl)=C(COCC(O)CN1CCN(c3ccccc3F)CC1)CCC2 (stereo not drawn),GI50,HeLa,7.8 µM
same,GI50,MDA-MB-231,9000 nM
same,GI50,A549,6300 nM
same,GI50,[1],9600 nM
Cc1cc2c(cc1C)C(Cl)=C(COCC(O)CN1CCSCC1)CCC2 (stereo not drawn),GI50,HeLa,1 µM
same,GI50,MDA-MB-231,2900 nM
same,GI50,A549,900 nM
same,GI50,[1],1500 nM
Cc1cc2c(cc1C)C(Cl)=C(COCC(O)CN1CCN(C)CC1)CCC2 (stereo not drawn),GI50,HeLa,16.3 µM
same,GI50,MDA-MB-231,20800 nM
same,GI50,A549,18200 nM
same,GI50,[1],24400 nM
CCOC(=O)N1CCN(CC(O)COCC2=C(Cl)c3cc(C)c(C)cc3CCC2)CC1 (stereo not drawn),GI50,HeLa,7.2 µM
same,GI50,MDA-MB-231,7300 nM
same,GI50,A549,4000 nM
same,GI50,[1],7900 nM
Cc1cc2c(cc1C)C(Cl)=C(COCC(O)CN1CCN(c3ccc(C(F)(F)F)cc3)CC1)CCC2 (stereo not drawn),GI50,HeLa,3.8 µM
same,GI50,MDA-MB-231,2500 nM
same,GI50,A549,3000 nM
same,GI50,[1],2000 nM
Cc1cc2c(cc1C)C(Cl)=C(COCC(O)CN1CCC(Cc3ccccc3)CC1)CCC2 (stereo not drawn),GI50,HeLa,1.4 µM
same,GI50,MDA-MB-231,2900 nM
same,GI50,A549,1800 nM
same,GI50,[1],1200 nM
Cc1cc2c(cc1C)C(Cl)=C(COCC(O)CN1CCN(c3ccccc3)CC1)CCC2 (stereo not drawn),GI50,HeLa,6.9 µM
same,GI50,MDA-MB-231,7800 nM
same,GI50,A549,5800 nM
same,GI50,[1],8800 nM
Cc1cc2c(cc1C)C(Cl)=C(COCC(O)CN1CCOCC1)CCC2 (stereo not drawn),GI50,HeLa,7.4 µM
same,GI50,MDA-MB-231,7900 nM
same,GI50,A549,5200 nM
same,GI50,[1],5600 nM
COc1ccccc1N1CCN(CC(O)COCC2=C(Cl)c3cc(C)c(C)cc3CCC2)CC1 (stereo not drawn),GI50,HeLa,2.4 µM
same,GI50,MDA-MB-231,3000 nM
same,GI50,A549,2100 nM
same,GI50,[1],2800 nM
Cc1cc2c(cc1C)C(Cl)=C(COCC(O)CN1CCN(c3ccc([N+](=O)[O-])cc3)CC1)CCC2 (stereo not drawn),GI50,HeLa,0.097 µM
same,GI50,MDA-MB-231,10 nM
same,GI50,A549,23 nM
same,GI50,[1],56 nM
COC(=O)Nc1nc2cc(C(=O)c3cccs3)ccc2[nH]1 [NOCODAZOLE],GI50,HeLa,0.086 µM
same,GI50,MDA-MB-231,65 nM
same,GI50,A549,90 nM
same,GI50,[1],91 nM
